We go through two sequences from patent US20260200984A1, “PEPTIDE FOR CARTILAGE REGENERATION, AND USES THEREOF” (CAREGEN CO., LTD., priority 2022, published 2026).

The subject of data set [1] is human adipose-derived mesenchymal stem cells (AD-MSC).
Method: (§1) The aim was to analyze the cytotoxicity caused by the addition of Peptide-1 or Peptide-2 to human adipose-derived mesenchymal stem cells (AD-MSC) using the CCK-8 assay.
(§2) Specifically, AD-MSC cells were seeded in 96-well plates at a density of 1.5×10^3 cells/well and cultured in Dulbecco's Modified Eagle's Medium (DMEM) supplemented with 10% FBS for 24 hours. Then, the medium was replaced with DMEM medium supplemented with 5% FBS, and Peptide-1 or Peptide-2 was treated at different concentrations, respectively. Subsequently, the medium was replaced every 3 days and Peptide-1 or Peptide-2 was treated at different concentrations, respectively. To confirm CCK-8 activity, after 7 days, CCK-8 (Dojindo, CCK-8 kit) solution was added at 1/10 volume of the culture medium, and incubated for 2 hours. The culture medium was sampled and CCK-8 activity was confirmed at a wavelength of 450 nm using a microplate reader.
Data set [2] has the same test system. The data set is described as follows: CCK-8 cytotoxicity assay in AD-MSC cells. The conditions noted are these: different concentrations, 7 days, absorbance 450 nm, FIG. 1, FIG. 2. For orientation: Formazan colour is commonly taken as a measure of viable cells.
Method: as §1, §2

Read-outs that look alike come from different tables or passages of the source. Where no end group is shown, it is not given here.

In the case of QSSLRALR [Peptide-2, QSSLRALR], in data set [1], the “toxicity toward adipose-derived mesenchymal stem cells (CCK-8 activity)” value is listed as “did not exhibit toxicity”. For the sequence “SHIAGGLSFHSTV [Peptide-1, SHIAGGLSFHSTV]”, the “toxicity toward adipose-derived mesenchymal stem cells (CCK-8 activity)” value in data set [2] is listed as “did not exhibit toxicity”.
